The values below come from BindingDB's records for doi:10.1016/j.ejmech.2010.09.016 (Democritus University of Thrace, 2010).

The test deals with Seed linoleate 13S-lipoxygenase-1 (Glycine max) (UniProt P08170). The test can be described thus: Inhibition of soybean lipoxygenase at by UV spectrophotometry.
Chain of Seed linoleate 13S-lipoxygenase-1 (Glycine max) (P08170 whole entry, looked up): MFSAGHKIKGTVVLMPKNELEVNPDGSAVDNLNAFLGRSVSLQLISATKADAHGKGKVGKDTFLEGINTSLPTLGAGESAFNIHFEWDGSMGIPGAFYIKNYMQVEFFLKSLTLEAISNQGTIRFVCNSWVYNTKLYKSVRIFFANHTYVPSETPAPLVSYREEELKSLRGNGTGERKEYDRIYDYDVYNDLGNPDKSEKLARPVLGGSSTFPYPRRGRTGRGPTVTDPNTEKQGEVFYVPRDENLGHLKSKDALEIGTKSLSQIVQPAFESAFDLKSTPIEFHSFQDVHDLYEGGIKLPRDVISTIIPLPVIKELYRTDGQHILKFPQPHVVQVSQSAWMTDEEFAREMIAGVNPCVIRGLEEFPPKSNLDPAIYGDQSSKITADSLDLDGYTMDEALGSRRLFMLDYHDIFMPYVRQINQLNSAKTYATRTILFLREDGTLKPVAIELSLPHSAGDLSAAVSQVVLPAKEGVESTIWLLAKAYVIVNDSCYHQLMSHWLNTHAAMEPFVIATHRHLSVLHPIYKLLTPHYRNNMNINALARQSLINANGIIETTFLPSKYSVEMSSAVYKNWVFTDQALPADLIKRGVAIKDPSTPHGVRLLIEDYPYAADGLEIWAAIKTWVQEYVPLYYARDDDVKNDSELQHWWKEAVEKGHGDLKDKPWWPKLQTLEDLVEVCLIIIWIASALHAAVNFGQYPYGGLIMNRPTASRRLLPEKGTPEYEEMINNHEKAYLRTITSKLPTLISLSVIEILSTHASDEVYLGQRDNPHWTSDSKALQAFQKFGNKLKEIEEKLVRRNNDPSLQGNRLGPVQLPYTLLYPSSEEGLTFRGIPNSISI

One may read the IC50 as the concentration that gives 50% inhibition. The low end stands for inhibition by little substance, the high end for a need for much substance. Molecule `Clc1ccc(Cc2noc(NC3CCCCC3)n2)cc1` [3-(4-Chlorobenzyl)-N-cyclohexyl-1,2,4-oxadiazol-5-amine] displayed an IC50 of 25 µM. That is a double-digit micromolar value.
`CC(C)Nc1nc(Cc2ccc(Cl)cc2)no1` [3-(4-Chlorobenzyl)-N-isopropyl-1,2,4-oxadiazol-5-amine] had an IC50 of 100 µM.
As for `CC(C)Nc1nc(C2CCCCC2)no1` [3-Cyclohexyl-N-isopropyl-1,2,4-oxadiazol-5-amine], the figure is 100 µM; as for `Cc1ccc(-c2noc(NCCCN(C)C)n2)cc1` [N1,N1-Dimethyl-N3-(3-p-tolyl-1,2,4-oxadiazol-5-yl)propane-1,3-diamine], 25 µM.
As for `COc1ccc(C(=N)NO)cc1` [N'-hydroxy-4-methoxybenzimidamide], the figure is 55 µM; as for `Cc1ccc(C(=N)NO)cc1` [N'-hydroxy-4-methylbenzimidamide], 100 µM; as for `O=[N+]([O-])c1ccc(Cc2noc(NC3CCCCC3)n2)cc1` [N-Cyclohexyl-3-(4-nitrobenzyl)-1,2,4-oxadiazol-5-amine], 100 µM.
Molecule `Cc1ccc(-c2noc(NC3CCCCC3)n2)cc1` [N-Cyclohexyl-3-p-tolyl-1,2,4-oxadiazol-5-amine] returned an IC50 of 92 µM.
Molecule `CC(=O)N(c1nc(-c2ccc([N+](=O)[O-])cc2)no1)C1CCCCC1` [N-Cyclohexyl-N-[3-(4-nitrophenyl)-1,2,4-oxadiazol-5-yl]acetamide] showed an IC50 of 50 µM. This IC50 lies about 1.8-fold lower than the previous one.
For the molecule `CC(=O)N(c1nc(-c2cccc([N+](=O)[O-])c2)no1)C(C)C` [N-Isopropyl-N-[3-(3-nitrophenyl)-1,2,4-oxadiazol-5-yl]acetamide], the IC50 came to 58.5 µM.
As for `CC(=O)N(c1nc(Cc2ccc(Cl)cc2)no1)C1CCCCC1` [N-[3-(4-Chlorobenzyl)-1,2,4-oxadiazol-5-yl]-N-cyclohexylacetamide], the figure is 100 µM.
